Reference: US6465259B1, “Non radioactive receptor assay suitable for quantitative and qualitative analysis of trace amounts of receptor binding analyte” (Merska B.V., priority 1999, dated 2002)
Where two headings read alike, the source gives them in different places.

Experiments:
[1] = system: benzodiazepine receptor; conditions: rat receptor material, cited from earlier work
[2] = target: benzodiazepine receptor; assay: Affinity for the benzodiazepine receptor, method not described; type: binding; conditions: FIG. 1 legend
[3] = system: benzodiazepine receptor; assay: Fluorescent binding assay, saturation experiments with FLB; parameters: species or system calf; conditions: free initial concentration of 15 nM
Procedure: (§1) Calf brains, obtained from the slaughtcrhouse and stored at −80° C. after discarding the cerebellum, were homogenized in 6 volunmes (w/v) of ice-cold 0.32 M sucrose in a Potter-Elvehjem homogenizer (RW 20 DZW. Janke & Kunkel K G, Staufen i. Breisgau, Germany) fitted with a teflon pestle and centrifuged for 10 min at 1,000 ×g in a Beckman L8-55 Ulcracentrifuge (Beckman Instruments, Mijdrecht, The Netherlands). The supernatant was centrifuged for 60 min at 100,000×g. The resulting pellet (P2) was resuspended in sodium phosphate buffer (pH 7.4; 50 mM) and centrifuged for 30 min at 100,000×g. This washing step was repeated four times. All operations were performed at 4° C. The washed P2-pellet was resuspended in 5 volumes (w/v) phosphate buffer, frozen with liquid nitrogen and lyophilized (Hetosicc CD 52-1, Heto, Birkerød, Denmark) . rhe lyophilized P2-pellet was stored at −20° C. For the receptor binding assays, the lyophilized P2-pellet was resuspended in Tris-HCl buffer (pH 7.4; 50 mM) with the glass-teflon Potter homogenizer (3.5 mg/inl).
(§2) For the saturation experiments, 25 μl FLB solution (0.5-50 nM final concentration) in Tris-HCl buffer (pH 7.4; 50 mM) were pipetted in duplicate in the wells of the filtration plate after pre-wetting the filters. […] To this mixture, 200 μl of the receptor suspension (225 μg protein per assay) were added and the plate was shaken for 1 min. […] Hundred μl of the filtrates were analyzed with the above described HPLC-method.
(§3) The saturation and inhibition curves for both the radioactive labeled benzodiazepine [^3H]flunitrazepam and the fluorescent labeled benzodiazepine. […] The specific binding was calculated by subtracting the non-specific binding from the total binding. […] The Bmax value was calculated to be 3.42±0.01 nM, which corresponds to 3.84±0.09 pM/mg protein. […] After binding of BD 623 to the receptor, the fluorescence intensity is decreased and from the level of fluorescence quenching the amount of bound BD 623 can be estimated. […]

[4] = system: T1, benzodiazepine receptor; assay: as above; parameters: species or system calf
T1 construct: IC50; other: FLB as labeled ligand, 7.3 nM; Bmax; other: saturation with FLB; other: [3H]flunitrazepam as labeled ligand, 2.2 nM; other: FLB assay concentration 7.3 nM; recov
Procedure: as §1, §2, §3

[5] = target: T1, benzodiazepine receptor; assay: Radioligand binding assay with [3H]flunitrazepam; parameters: species or system calf
Procedure: as §1, with “The washed P2-pellet was resuspended in 5 volumes (w/v) phosphate buffer, frozen with liquid nitrogen and lyophilized (Hetosicc CD 52-1, Heto, Birkerød, Denmark) . rhe lyophilized P2-pellet was stored at −20° C. For the receptor binding assays, the lyophilized P2-pellet was resuspended in Tris-HCl buffer (pH 7.4; 50 mM) with the glass-teflon Potter homogenizer (3.5 mg/inl).” left out
The filters of a MultiScreen-FB filtration plate were pre-wetted by pipetting 200 μl ice-cold Tris-HCl buffer (pH 7.4; 50 mm) into each well. […] After shaking the vials, the radioactivity was counted for 5 min in a Tri-Carb 4000 Packard scintillation counter (Canberra Packard, Groningen, The Netherlands). […]
The saturation and inhibition curves for both the radioactive labeled benzodiazepine [^3H]flunitrazepam and the fluorescent labeled benzodiazepine. […] The specific binding was calculated by subtracting the non-specific binding from the total binding. […] The Bmax value was calculated to be 3.42±0.01 nM, which corresponds to 3.84±0.09 pM/mg protein. […]

[6] = target: benzodiazepine receptor; conditions: McCabe et al. [h]; cited from earlier work
[7] = target: T1, benzodiazepine receptor; assay: Fluorescent receptor assay for benzodiazepines, calibration curves with FLB as labeled ligand; type: binding, calf; conditions: 7.3 nM
[8] = target: benzodiazepine receptor; conditions: cited from earlier work

Compound: NBD-NH—(CH2)3-Ro15-3890 [BD 623]
- Bmax ([1]; fluorescence quenching, no bound/unbound separation): 7.2 nM
- Ki [2]: 5.7 nM

Compound: Mmc-O—CO—(CH2)3-Ro15-3890 [FLB]
- non-specific binding, % of the total binding [3]: 25%
- added FLB bound to the receptors (total binding) ([4]; FLB assay concentration 7.3 nM): 26%
- Kd ([4]; saturation curve, one-binding site model, read-out: binding affinity (Kd) for the benzodiazepine receptor): ~7.3 nM
- Ki ([5]; read-out: Ki-value, inhibition assays with [3H]flunitrazepam): 6.5 nM

Compound: fluorescein-NH—(CH2)3-Ro15-3890 [BD 621]
- Kd [6]: 63 nM

Compound: CN1C(=O)CN=C(c2ccccc2)c2cc(Cl)ccc21 [diazepam]
- IC50 [7]: 41 ± 7 nM

Compound: CCOC(=O)c1ncn2c1CN(C)C(=O)c1cc(F)ccc1-2 [[^3H]flumazenil]
- Bmax ([1]; filtration): 2.3 nM

Compound: O=C1Nc2ccc(Cl)cc2C(c2ccccc2Cl)=NC1O (stereo not shown) [lorazepam]
- IC50 ([5]; [3H]flunitrazepam as labeled ligand, 2.2 nM): 6.61 ± 0.69 nM
- IC50 [7]: 7.2 ± 0.5 nM

Compound: AMCA-didesethylflurazepam [AMCA-Ro7-1986]
- Ki ([8]; from reference [b]): 8.6 nM
- non-specific binding ([8]; reference [b]): 20%
